Columns and labels:
[1] = molecular target: Adenosine receptors; A2b & A3 (Homo sapiens) (UniProt P29275+P0DMS8); assay: Relative binding affinity for human adenosine A2b and A3 receptors; format: protein assay
[2] = molecular target: Adenosine receptors; A2a & A3 (Homo sapiens) (UniProt P0DMS8+P29274); assay: Relative binding affinity for human adenosine A2a and A3 receptors; format: protein assay
Adenosine receptor A1 = molecular target: T1, Adenosine receptor A1 (Homo sapiens, UniProt P30542); assay: Inhibition of [3H]DPCPX binding to human adenosine A1 receptor expressed in CHO cells; format: cell-based
T1 sequence (P30542 whole entry): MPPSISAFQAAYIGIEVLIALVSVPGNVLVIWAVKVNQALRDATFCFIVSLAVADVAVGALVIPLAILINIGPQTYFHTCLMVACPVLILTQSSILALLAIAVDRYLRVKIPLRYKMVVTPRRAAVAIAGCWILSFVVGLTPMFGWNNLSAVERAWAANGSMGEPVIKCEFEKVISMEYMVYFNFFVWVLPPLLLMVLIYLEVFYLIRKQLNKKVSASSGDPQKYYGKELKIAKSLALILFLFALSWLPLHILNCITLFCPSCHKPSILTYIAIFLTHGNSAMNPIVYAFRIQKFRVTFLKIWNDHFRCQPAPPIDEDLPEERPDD

Adenosine receptor A2b = molecular target: T2, Adenosine receptor A2b (Homo sapiens, UniProt P29275); assay: Inhibition of 100 nM NECA-stimulated cAMP production in CHO cells expressing human adenosine A2B receptor; format: functional, cell-based
T2 sequence (P29275 whole entry): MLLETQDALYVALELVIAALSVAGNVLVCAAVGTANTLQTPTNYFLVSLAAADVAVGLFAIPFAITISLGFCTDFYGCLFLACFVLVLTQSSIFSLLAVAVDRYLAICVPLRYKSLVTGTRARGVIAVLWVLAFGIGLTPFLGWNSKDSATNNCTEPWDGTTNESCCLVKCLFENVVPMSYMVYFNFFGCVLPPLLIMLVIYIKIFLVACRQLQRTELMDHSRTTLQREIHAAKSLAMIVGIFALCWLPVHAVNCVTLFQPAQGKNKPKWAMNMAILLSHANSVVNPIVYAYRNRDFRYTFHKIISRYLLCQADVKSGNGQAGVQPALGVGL

Adenosine receptor A2a = Adenosine receptor A2a (Homo sapiens, UniProt P29274); assay: Inhibition of [3H]-ZM 241385 binding to human adenosine A2a receptor expressed in CHO cells; format: cell-based
Adenosine receptor A2a, sequence (P29274 whole entry): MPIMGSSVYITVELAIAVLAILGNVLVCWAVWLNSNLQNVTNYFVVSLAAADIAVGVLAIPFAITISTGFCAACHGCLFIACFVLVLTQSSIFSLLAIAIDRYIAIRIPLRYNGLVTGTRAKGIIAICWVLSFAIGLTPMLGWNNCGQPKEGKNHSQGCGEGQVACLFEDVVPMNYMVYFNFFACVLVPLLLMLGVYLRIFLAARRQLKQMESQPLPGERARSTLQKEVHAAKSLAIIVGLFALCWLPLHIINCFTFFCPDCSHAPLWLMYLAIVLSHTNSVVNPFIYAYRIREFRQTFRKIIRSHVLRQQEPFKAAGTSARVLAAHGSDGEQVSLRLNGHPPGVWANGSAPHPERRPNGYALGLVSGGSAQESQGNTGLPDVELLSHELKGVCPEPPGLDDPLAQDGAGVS

[3] = molecular target: Adenosine receptors; A1 & A3 (Homo sapiens) (UniProt P30542+P0DMS8); assay: Relative binding affinity for human adenosine A1 and A3 receptors; format: protein assay
Adenosine receptors; A1 & A3 (Homo sapiens), sequence (P0DMS8 whole entry, looked up, one chain of several): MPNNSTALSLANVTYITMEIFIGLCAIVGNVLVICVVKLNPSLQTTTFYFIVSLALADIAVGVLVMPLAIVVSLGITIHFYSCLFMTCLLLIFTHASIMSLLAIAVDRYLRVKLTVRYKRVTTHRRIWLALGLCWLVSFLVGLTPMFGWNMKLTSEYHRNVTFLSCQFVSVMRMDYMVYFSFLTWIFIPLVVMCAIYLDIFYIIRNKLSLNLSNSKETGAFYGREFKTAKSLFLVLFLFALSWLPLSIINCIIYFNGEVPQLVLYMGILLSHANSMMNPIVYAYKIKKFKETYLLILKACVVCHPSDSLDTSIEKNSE

Question: For `CCCn1c(=O)c2c(nc3[nH]c(CC)c(C)n32)n(Cc2ccccc2)c1=O`, which Selectivity [1] is on record?
Answer: > 17

Question: And the Selectivity [2]?
Answer: > 17

Question: What about the Ki (Adenosine receptor A1) of the same compound?
Answer: > 1000 nM

Question: And the IC50 (Adenosine receptor A2b)?
Answer: > 1000 nM

Question: And the Ki (Adenosine receptor A2a)?
Answer: > 1000 nM

Question: What about the Selectivity [3] of the same compound?
Answer: > 17

Question: Which results are given for `CCCn1c(=O)c2c(nc3[nH]c(C(C)(C)C)cn32)n(Cc2ccccc2)c1=O`?
Answer: Selectivity [1]: > 10; Selectivity [2]: > 10; Ki (Adenosine receptor A1): > 1000 nM; IC50 (Adenosine receptor A2b): > 1000 nM; Ki (Adenosine receptor A2a): > 1000 nM; Selectivity [3]: > 10

Question: `CCCn1c(=O)c2c(nc3n2CC(c2ccccc2)=C3)n(Cc2ccccc2)c1=O` was tested. Which Selectivity [2] did it give?
Answer: > 5

Question: And the Ki (Adenosine receptor A1)?
Answer: > 1000 nM

Question: And the Ki (Adenosine receptor A2a)?
Answer: > 1000 nM

Question: What about the Selectivity [3] of the same compound?
Answer: > 5

Question: With `CCCn1c(=O)c2c(nc3[nH]c(C(C)C)cn32)n(Cc2ccccc2)c1=O` as the compound, how does the Selectivity [1] read?
Answer: > 32

Question: And the Selectivity [2]?
Answer: > 32

Question: What about the IC50 (Adenosine receptor A2b) of the same compound?
Answer: > 1000 nM

Question: And the Ki (Adenosine receptor A2a)?
Answer: > 1000 nM

Question: And the Selectivity [3]?
Answer: > 15

Question: Which results are given for `CCCn1c(=O)c2c(nc3n2CC(C)=C3)n(Cc2ccccc2)c1=O`?
Answer: Selectivity [1]: 50; Selectivity [2]: > 125; Ki (Adenosine receptor A1): > 1000 nM; Ki (Adenosine receptor A2a): > 1000 nM; Selectivity [3]: > 125

Question: What does the source list for `CCCn1c(=O)c2c(nc3[nH]c(C)c(C)n32)n(Cc2ccccc2)c1=O`?
Answer: Selectivity [1]: > 28; Selectivity [2]: > 28; Ki (Adenosine receptor A1): > 1000 nM; IC50 (Adenosine receptor A2b): > 1000 nM; Ki (Adenosine receptor A2a): > 1000 nM; Selectivity [3]: > 28

Question: How did the Selectivity [1] turn out when `CCCn1c(=O)c2c(nc3n2C(C)C(C)=C3)n(Cc2ccccc2)c1=O` (stereo not given) was run?
Answer: > 13

Question: And the Selectivity [2]?
Answer: > 13

Question: And the Ki (Adenosine receptor A1)?
Answer: > 1000 nM

Question: What about the IC50 (Adenosine receptor A2b) of the same compound?
Answer: > 1000 nM

Question: What about the Ki (Adenosine receptor A2a) of the same compound?
Answer: > 1000 nM

Question: What about the Selectivity [3] of the same compound?
Answer: > 13

Question: How did the Selectivity [2] turn out when `CCCn1c(=O)c2c(nc3[nH]c(-c4ccc(F)cc4)cn32)n(Cc2ccccc2)c1=O` was run?
Answer: > 45

Question: And the Ki (Adenosine receptor A1)?
Answer: > 1000 nM

Question: What about the Ki (Adenosine receptor A2a) of the same compound?
Answer: > 1000 nM

Question: What about the Selectivity [3] of the same compound?
Answer: > 45

Question: What does the source list for `CCCn1c(=O)c2c(nc3[nH]c(-c4ccc(OC)cc4)cn32)n(Cc2ccccc2)c1=O`?
Answer: Selectivity [2]: > 18; Ki (Adenosine receptor A1): > 1000 nM; Ki (Adenosine receptor A2a): > 1000 nM; Selectivity [3]: > 18

Question: How did the Selectivity [2] turn out when `CCCn1c(=O)c2c(nc3[nH]c(C4CCCCC4)cn32)n(Cc2ccccc2)c1=O` was run?
Answer: > 2

Question: And the Ki (Adenosine receptor A1)?
Answer: > 1000 nM

Question: What about the IC50 (Adenosine receptor A2b) of the same compound?
Answer: > 1000 nM

Question: And the Ki (Adenosine receptor A2a)?
Answer: > 1000 nM

Question: And the Selectivity [3]?
Answer: > 2

Question: Which Selectivity [1] does the source give for `CCCn1c(=O)c2c(nc3[nH]c(C4CC4)cn32)n(Cc2ccccc2)c1=O` here?
Answer: > 44

Question: What about the Selectivity [2] of the same compound?
Answer: > 44

Question: What about the IC50 (Adenosine receptor A2b) of the same compound?
Answer: > 1000 nM

Question: And the Ki (Adenosine receptor A2a)?
Answer: > 1000 nM

Question: What about the Selectivity [3] of the same compound?
Answer: 15

Question: What does the source list for `CCCn1c(=O)c2c(nc3[nH]c(CC)cn32)n(Cc2ccccc2)c1=O`?
Answer: Selectivity [1]: > 67; Selectivity [2]: > 67; Ki (Adenosine receptor A1): > 1000 nM; IC50 (Adenosine receptor A2b): > 1000 nM; Ki (Adenosine receptor A2a): > 1000 nM; Selectivity [3]: > 67

Question: Which IC50 (Adenosine receptor A2b) does the source give for `CCCn1c(=O)c2c(nc3n2CC(CC)=C3)n(Cc2ccccc2)c1=O` here?
Answer: > 1000 nM

Question: How did the Ki (Adenosine receptor A1) turn out when `CCCn1c(=O)c2c(nc3[nH]c(-c4ccc(-c5ccccc5)cc4)cn32)n(Cc2ccccc2)c1=O` was run?
Answer: > 1000 nM

Question: And the Ki (Adenosine receptor A2a)?
Answer: > 1000 nM

Question: How did the IC50 (Adenosine receptor A2b) turn out when `CCCn1c(=O)c2c(nc3[nH]c(C)cn32)n(Cc2ccccc2)c1=O` was run?
Answer: > 1000 nM

Question: What does the source list for `CCCn1c(=O)c2c(nc3[nH]c(-c4ccccc4)cn32)n(Cc2ccccc2)c1=O`?
Answer: Selectivity [2]: > 9; Ki (Adenosine receptor A1): > 1000 nM; Ki (Adenosine receptor A2a): > 1000 nM; Selectivity [3]: > 9

From ChEMBL document CHEMBL1140322, “New pyrrolo[2,1-f]purine-2,4-dione and imidazo[2,1-f]purine-2,4-dione derivatives as potent and selective human A3 adenosine receptor antagonists” (J Med Chem, 2005)
